Consider 11 molecules from patent publication US20260356819A1, “OXOISOINDOLINYL-SUBSTITUTED […] DERIVATIVE AND USE THEREOF” (GLUETACS THERAPEUTICS (SHANGHAI) CO., LTD., priority 2023, published 2026).

What all share (type): cell-based
Holding throughout (conditions): compounds at 50 nM and 500 nM

For test [1], the target named is T1, WEE1 (Homo sapiens, UniProt P30291+Q96SW2).
T1 construct: The supernatant was aspirated as the extracted total cell protein; endogenous in cells; host or cells: human peripheral blood mononuclear cells (hPBMCs)
The test can be described thus: Western blot degradation of WEE1 in hPBMCs (24 h). The method in brief:
(§1)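 Immunoblot densitometry quantifies target loss in hPBMCs after a 24 h compound exposure (50 nM, 500 nM). Percent remaining is normalised band intensity; DC50 is the concentration giving half the DMSO-control band grayscale.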
(In general: A western blot detects proteins with antibodies after separation by electrophoresis.)

Test [2] has as its target T2, IKZF1 (Homo sapiens, UniProt Q13422+Q96SW2).
T2 construct: The supernatant was aspirated as the extracted total cell protein; endogenous in cells; host or cells: human peripheral blood mononuclear cells (hPBMCs)
The test can be described thus: Western blot degradation of IKZF1 in hPBMCs (24 h). The method in brief:
as §1

The target in test [3] is T3, IKZF2 (Homo sapiens, UniProt Q96SW2+Q9UKS7).
T3 construct: The supernatant was aspirated as the extracted total cell protein; endogenous in cells; host or cells: human peripheral blood mononuclear cells (hPBMCs)
As to the kind of experiment: Western blot degradation of IKZF2 in hPBMCs (24 h). The method in brief: as §1

Test [4] addresses T4, IKZF3 (Homo sapiens, UniProt Q96SW2+Q9UKT9).
T4 construct: The supernatant was aspirated as the extracted total cell protein; endogenous in cells; host or cells: human peripheral blood mononuclear cells (hPBMCs)
The test can be described thus: Western blot degradation of IKZF3 in hPBMCs (24 h). The gist of the method: as §1

Test [5] has as its target T5, CK1α (Homo sapiens, UniProt P48729+Q96SW2).
T5 construct: The supernatant was aspirated as the extracted total cell protein; endogenous in cells; host or cells: human peripheral blood mononuclear cells (hPBMCs)
The test can be described thus: Western blot degradation of CK1α in hPBMCs (24 h). The method in brief:
as §1

Test [6] concerns the target T6, GSPT1 (Homo sapiens, UniProt P15170+Q96SW2).
T6 construct: The supernatant was aspirated as the extracted total cell protein; endogenous in cells; host or cells: human peripheral blood mononuclear cells (hPBMCs)
The test can be described thus: Western blot degradation of GSPT1 in hPBMCs (24 h). The gist of the method: as §1

Each structure is given as a SMILES string.

T3 sequence (Q9UKS7 whole entry): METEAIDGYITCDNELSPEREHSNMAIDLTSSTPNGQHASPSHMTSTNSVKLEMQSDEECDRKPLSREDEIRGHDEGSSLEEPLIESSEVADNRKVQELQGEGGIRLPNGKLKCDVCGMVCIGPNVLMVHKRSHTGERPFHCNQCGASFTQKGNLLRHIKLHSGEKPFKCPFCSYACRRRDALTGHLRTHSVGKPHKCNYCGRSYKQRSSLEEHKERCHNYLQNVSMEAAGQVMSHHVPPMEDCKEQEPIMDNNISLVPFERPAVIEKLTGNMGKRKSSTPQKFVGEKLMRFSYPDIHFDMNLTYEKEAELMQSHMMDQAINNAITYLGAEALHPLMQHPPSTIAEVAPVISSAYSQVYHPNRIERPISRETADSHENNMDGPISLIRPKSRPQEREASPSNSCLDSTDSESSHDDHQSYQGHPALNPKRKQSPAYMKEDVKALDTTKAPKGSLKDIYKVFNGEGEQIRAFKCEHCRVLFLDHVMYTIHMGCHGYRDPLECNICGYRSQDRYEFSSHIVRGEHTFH
T3 sequence (Q96SW2 whole entry): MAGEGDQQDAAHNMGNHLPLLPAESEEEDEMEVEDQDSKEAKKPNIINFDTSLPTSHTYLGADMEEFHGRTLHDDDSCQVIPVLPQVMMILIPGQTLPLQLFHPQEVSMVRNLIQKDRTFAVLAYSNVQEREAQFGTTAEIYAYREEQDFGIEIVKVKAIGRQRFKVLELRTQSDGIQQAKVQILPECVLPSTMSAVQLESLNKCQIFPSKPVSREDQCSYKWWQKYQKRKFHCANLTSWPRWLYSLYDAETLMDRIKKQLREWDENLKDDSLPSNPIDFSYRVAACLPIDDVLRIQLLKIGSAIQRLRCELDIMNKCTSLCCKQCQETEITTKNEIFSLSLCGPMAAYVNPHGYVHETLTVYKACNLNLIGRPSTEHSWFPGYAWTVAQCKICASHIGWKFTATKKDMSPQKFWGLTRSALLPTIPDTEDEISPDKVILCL
T3 sequence (Q16531 whole entry partner): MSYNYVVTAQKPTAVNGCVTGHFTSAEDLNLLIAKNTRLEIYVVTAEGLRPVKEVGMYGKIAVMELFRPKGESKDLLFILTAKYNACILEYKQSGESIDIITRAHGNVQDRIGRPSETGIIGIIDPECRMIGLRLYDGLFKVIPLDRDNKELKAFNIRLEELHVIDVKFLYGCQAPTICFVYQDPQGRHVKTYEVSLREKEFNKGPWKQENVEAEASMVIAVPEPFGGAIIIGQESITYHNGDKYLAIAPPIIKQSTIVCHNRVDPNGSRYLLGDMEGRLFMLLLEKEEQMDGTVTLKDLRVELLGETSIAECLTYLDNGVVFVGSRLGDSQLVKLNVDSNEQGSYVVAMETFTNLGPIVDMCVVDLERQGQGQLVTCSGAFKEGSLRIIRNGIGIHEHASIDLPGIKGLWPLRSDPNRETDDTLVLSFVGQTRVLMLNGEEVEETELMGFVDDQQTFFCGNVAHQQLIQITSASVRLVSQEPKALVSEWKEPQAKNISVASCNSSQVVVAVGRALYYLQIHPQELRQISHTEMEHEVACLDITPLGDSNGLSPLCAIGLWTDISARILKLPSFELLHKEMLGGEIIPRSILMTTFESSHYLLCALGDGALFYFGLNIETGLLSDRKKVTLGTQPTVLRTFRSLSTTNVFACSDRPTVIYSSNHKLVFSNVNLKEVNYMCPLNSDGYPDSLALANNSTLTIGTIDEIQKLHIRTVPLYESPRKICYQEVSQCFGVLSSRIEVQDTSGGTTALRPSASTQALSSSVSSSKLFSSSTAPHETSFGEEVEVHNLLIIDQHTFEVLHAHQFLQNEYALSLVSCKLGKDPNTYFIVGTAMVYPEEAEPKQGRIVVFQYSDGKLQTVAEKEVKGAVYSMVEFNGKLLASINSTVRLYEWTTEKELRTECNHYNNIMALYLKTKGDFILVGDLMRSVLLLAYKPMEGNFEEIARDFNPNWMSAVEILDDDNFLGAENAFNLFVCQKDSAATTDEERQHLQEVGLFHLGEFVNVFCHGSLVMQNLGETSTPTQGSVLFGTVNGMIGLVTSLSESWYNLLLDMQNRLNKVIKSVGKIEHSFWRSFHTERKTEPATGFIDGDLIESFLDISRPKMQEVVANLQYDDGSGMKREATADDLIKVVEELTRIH
T4 sequence (Q9UKT9 whole entry): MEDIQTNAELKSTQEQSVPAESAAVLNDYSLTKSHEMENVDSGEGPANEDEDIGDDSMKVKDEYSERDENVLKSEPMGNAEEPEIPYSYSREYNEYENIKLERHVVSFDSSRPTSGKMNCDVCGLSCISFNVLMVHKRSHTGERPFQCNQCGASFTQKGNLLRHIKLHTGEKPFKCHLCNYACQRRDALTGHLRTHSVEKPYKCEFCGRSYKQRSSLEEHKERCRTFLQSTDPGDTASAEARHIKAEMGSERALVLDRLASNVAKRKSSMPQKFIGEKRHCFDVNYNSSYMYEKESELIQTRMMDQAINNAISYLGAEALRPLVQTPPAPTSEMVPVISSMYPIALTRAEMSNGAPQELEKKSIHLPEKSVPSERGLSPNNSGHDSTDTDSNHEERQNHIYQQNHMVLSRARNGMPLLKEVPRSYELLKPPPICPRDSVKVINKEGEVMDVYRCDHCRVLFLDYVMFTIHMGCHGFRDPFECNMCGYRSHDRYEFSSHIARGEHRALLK
T4 sequence (Q96SW2 whole entry): as the sequence (Q96SW2 whole entry) above
T4 sequence (Q16531 whole entry partner): as the sequence (Q16531 whole entry partner) above
T6 sequence (P15170 whole entry): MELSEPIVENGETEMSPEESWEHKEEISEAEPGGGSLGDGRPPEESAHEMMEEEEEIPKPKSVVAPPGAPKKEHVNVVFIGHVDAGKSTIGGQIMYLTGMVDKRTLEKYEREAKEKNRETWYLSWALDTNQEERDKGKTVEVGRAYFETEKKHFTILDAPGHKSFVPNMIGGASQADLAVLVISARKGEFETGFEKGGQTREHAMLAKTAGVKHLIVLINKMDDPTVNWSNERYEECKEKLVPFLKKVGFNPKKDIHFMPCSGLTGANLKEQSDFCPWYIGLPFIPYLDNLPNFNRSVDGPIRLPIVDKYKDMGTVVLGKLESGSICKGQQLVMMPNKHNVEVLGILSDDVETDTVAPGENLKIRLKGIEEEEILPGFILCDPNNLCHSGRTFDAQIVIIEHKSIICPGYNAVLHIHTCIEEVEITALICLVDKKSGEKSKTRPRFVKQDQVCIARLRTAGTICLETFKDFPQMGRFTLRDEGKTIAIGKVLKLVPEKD
T6 sequence (Q96SW2 whole entry): as the sequence (Q96SW2 whole entry) above
T6 sequence (Q16531 whole entry partner): as the sequence (Q16531 whole entry partner) above
T2 sequence (Q13422 whole entry): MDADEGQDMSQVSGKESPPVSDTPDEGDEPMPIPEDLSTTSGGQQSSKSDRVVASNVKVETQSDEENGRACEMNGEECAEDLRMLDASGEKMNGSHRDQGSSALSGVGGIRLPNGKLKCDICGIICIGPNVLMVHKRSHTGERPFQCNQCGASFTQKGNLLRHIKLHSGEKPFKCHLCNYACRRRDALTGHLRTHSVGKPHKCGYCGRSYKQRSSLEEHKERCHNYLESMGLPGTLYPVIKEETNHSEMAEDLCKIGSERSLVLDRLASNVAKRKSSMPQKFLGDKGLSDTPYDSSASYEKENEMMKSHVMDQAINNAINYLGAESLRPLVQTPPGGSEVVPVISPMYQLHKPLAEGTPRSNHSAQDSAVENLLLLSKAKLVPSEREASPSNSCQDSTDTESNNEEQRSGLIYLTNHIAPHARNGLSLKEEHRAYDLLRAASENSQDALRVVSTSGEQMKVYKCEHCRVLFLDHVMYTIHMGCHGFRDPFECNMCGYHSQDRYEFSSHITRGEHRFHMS
T2 sequence (Q96SW2 whole entry): as the sequence (Q96SW2 whole entry) above
T2 sequence (Q16531 whole entry partner): as the sequence (Q16531 whole entry partner) above
T1 sequence (P30291 whole entry): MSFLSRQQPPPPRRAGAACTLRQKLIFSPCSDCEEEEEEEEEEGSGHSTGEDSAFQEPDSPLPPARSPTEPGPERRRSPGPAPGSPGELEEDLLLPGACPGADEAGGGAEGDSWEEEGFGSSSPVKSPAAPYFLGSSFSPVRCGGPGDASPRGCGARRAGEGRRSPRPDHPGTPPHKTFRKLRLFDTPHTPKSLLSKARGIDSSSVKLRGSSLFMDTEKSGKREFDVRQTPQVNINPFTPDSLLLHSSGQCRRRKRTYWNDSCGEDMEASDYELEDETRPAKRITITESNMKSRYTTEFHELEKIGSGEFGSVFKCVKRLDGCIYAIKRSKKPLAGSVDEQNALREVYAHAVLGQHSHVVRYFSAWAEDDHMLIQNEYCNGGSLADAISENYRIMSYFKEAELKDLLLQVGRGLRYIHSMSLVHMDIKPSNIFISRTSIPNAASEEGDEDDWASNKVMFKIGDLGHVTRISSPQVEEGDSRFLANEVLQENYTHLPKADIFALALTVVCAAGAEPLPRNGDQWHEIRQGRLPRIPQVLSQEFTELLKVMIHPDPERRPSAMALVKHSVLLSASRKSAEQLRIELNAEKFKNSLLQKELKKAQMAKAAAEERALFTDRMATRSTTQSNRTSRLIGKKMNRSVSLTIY
T1 sequence (Q96SW2 whole entry): as the sequence (Q96SW2 whole entry) above
T1 sequence (Q16531 whole entry partner): as the sequence (Q16531 whole entry partner) above

In the case of `O=C1CCN(N2C(=O)c3ccc(CN4C5CC4CN(C(=O)C4=C(c6ccc(F)cc6)CCCC4)C5)cc3C2=O)C(=O)N1` [GT-07377, 2-(2,4-dioxotetrahydropyrimidin-1(2H)-yl)-5-((3-(4′-fluoro-3,4,5,6-tetrahydro-[1,1′-biphenyl]-2-carbonyl)-3,6-diazabicyclo[3.1.1]heptan-6-yl)methyl)isoindoline-1,3-dione], the “WEE1 substrate protein remaining %” value in test [1] is “A (0% ≤ substrate protein remaining % ≤80%)”. The “IKZF1 substrate protein remaining %” value in test [2] is given as “B (80%< substrate protein remaining % ≤100%)”. For the same molecule, in test [3], the “IKZF2 substrate protein remaining %” value is on record as “A (0% ≤ substrate protein remaining % ≤80%)”. In addition, the “IKZF3 substrate protein remaining %” value in test [4] is “B (80%< substrate protein remaining % ≤100%)”. In addition, the “CK1α substrate protein remaining %” value in test [5] is recorded as “A (0% ≤ substrate protein remaining % ≤80%)”. Further, the “GSPT1 substrate protein remaining %” value in test [6] was “A (0% ≤ substrate protein remaining % ≤80%)”.

Regarding `Cc1cc(N2CCN(Cc3ccc4c(c3)C(=O)N(N3CCC(=O)NC3=O)C4=O)CC2)ccn1` [GT-07161, 2-(2,4-dioxotetrahydropyrimidin-1(2H)-yl)-5-((4-(2-methylpyridin-4-yl)piperazin-1-yl)methyl)isoindoline-1,3-dione], the “WEE1 substrate protein remaining %” value in test [1] is on record as “B (80%< substrate protein remaining % ≤100%)”. Also, in test [2], the “IKZF1 substrate protein remaining %” value was “B (80%< substrate protein remaining % ≤100%)”. The “IKZF2 substrate protein remaining %” value in test [3] is given as “A (0% ≤ substrate protein remaining % ≤80%)”. Besides, the “IKZF3 substrate protein remaining %” value in test [4] is “B (80%< substrate protein remaining % ≤100%)”. In addition, the “CK1α substrate protein remaining %” value in test [5] was “B (80%< substrate protein remaining % ≤100%)”. In addition, the “GSPT1 substrate protein remaining %” value in test [6] is reported as “A (0% ≤ substrate protein remaining % ≤80%)”.

Consider `CC(C)c1cc2c(N3CCN(Cc4ccc5c(c4)C(=O)N(N4CCC(=O)NC4=O)C5=O)CC3)ncnc2s1` [GT-08093, 2-(2,4-dioxotetrahydropyrimidin-1(2H)-yl)-5-((4-(6-isopropylthieno[2,3-d]pyrimidin-4-yl)piperazin-1-yl)methyl)isoindoline-1,3-dione], for which the “WEE1 substrate protein remaining %” value in test [1] is “A (0% ≤ substrate protein remaining % ≤80%)”. For the same molecule, the “IKZF1 substrate protein remaining %” value in test [2] is “B (80%< substrate protein remaining % ≤100%)”. Moreover, in test [3], the “IKZF2 substrate protein remaining %” value is reported as “B (80%< substrate protein remaining % ≤100%)”. Moreover, in test [4], the “IKZF3 substrate protein remaining %” value is “B (80%< substrate protein remaining % ≤100%)”. Also, in test [5], the “CK1α substrate protein remaining %” value is “A (0% ≤ substrate protein remaining % ≤80%)”. For the same molecule, the “GSPT1 substrate protein remaining %” value in test [6] is given as “A (0% ≤ substrate protein remaining % ≤80%)”.

Turning to `Cc1cc(N2CCN(Cc3ccc4c(c3)CN(N3CCC(=O)NC3=O)C4=O)CC2)cc(C)n1` [GT-07033, 1-(5-((4-(2,6-dimethylpyridin-4-yl)piperazin-1-yl)methyl)-1-oxoisoindolin-2-yl)dihydropyrimidine-2,4(1H,3H)-dione], the “WEE1 substrate protein remaining %” value in test [1] is given as “B (80%< substrate protein remaining % ≤100%)”. For the same molecule, in test [2], the “IKZF1 substrate protein remaining %” value is reported as “B (80%< substrate protein remaining % ≤100%)”. The “IKZF2 substrate protein remaining %” value in test [3] is reported as “B (80%< substrate protein remaining % ≤100%)”. For the same molecule, the “IKZF3 substrate protein remaining %” value in test [4] is “B (80%< substrate protein remaining % ≤100%)”. Further, the “CK1α substrate protein remaining %” value in test [5] was “B (80%< substrate protein remaining % ≤100%)”. In test [6], the “GSPT1 substrate protein remaining %” value is on record as “A (0% ≤ substrate protein remaining % ≤80%)”.

For `Cc1ccsc1N1CCN(Cc2ccc3c(c2)CN(N2CCC(=O)NC2=O)C3=O)CC1` [GT-05084, 1-(5-((4-(3-methylthiophen-2-yl)piperazin-1-yl)methyl)-1-oxoisoindolin-2-yl)dihydropyrimidine-2,4(1H,3H)-dione], in test [1], the “WEE1 substrate protein remaining %” value is “B (80%< substrate protein remaining % ≤100%)”. The “IKZF1 substrate protein remaining %” value in test [2] is given as “B (80%< substrate protein remaining % ≤100%)”. Moreover, the “IKZF2 substrate protein remaining %” value in test [3] is “A (0% ≤ substrate protein remaining % ≤80%)”. Moreover, in test [4], the “IKZF3 substrate protein remaining %” value is “B (80%< substrate protein remaining % ≤100%)”. For the same molecule, the “CK1α substrate protein remaining %” value in test [5] is given as “B (80%< substrate protein remaining % ≤100%)”. For the same molecule, the “GSPT1 substrate protein remaining %” value in test [6] is on record as “B (80%< substrate protein remaining % ≤100%)”.

`O=C1CCN(N2C(=O)c3ccc(CN4CC=C(c5ccnc(F)c5F)CC4)cc3C2=O)C(=O)N1` [GT-07494, 5-((2′,3′-difluoro-3,6-dihydro-[4,4′-bipyridin]-1(2H)-yl)methyl)-2-(2,4-dioxotetrahydropyrimidin-1(2H)-yl)isoindoline-1,3-dione]: in test [1], the “WEE1 substrate protein remaining %” value is “A (0% ≤ substrate protein remaining % ≤80%)”. Further, in test [2], the “IKZF1 substrate protein remaining %” value was “B (80%< substrate protein remaining % ≤100%)”. In addition, in test [3], the “IKZF2 substrate protein remaining %” value is “B (80%< substrate protein remaining % ≤100%)”. The “IKZF3 substrate protein remaining %” value in test [4] was “B (80%< substrate protein remaining % ≤100%)”. Further, in test [5], the “CK1α substrate protein remaining %” value is recorded as “A (0% ≤ substrate protein remaining % ≤80%)”. The “GSPT1 substrate protein remaining %” value in test [6] is “B (80%< substrate protein remaining % ≤100%)”.

For the molecule `O=C1CCN(N2C(=O)c3ccc(CN4CCN(C(c5ccccc5)c5cccnc5)CC4)cc3C2=O)C(=O)N1` (stereo not drawn) [GT-06377, 2-(2,4-dioxotetrahydropyrimidin-1(2H)-yl)-5-((4-(phenyl(pyridin-3-yl)methyl)piperazin-1-yl)methyl)isoindoline-1,3-dione], the “WEE1 substrate protein remaining %” value in test [1] is recorded as “A (0% ≤ substrate protein remaining % ≤80%)”. Moreover, the “IKZF1 substrate protein remaining %” value in test [2] is given as “B (80%< substrate protein remaining % ≤100%)”. In test [3], the “IKZF2 substrate protein remaining %” value was “A (0% ≤ substrate protein remaining % ≤80%)”. Also, in test [4], the “IKZF3 substrate protein remaining %” value is listed as “B (80%< substrate protein remaining % ≤100%)”. Moreover, in test [5], the “CK1α substrate protein remaining %” value was “B (80%< substrate protein remaining % ≤100%)”. In test [6], the “GSPT1 substrate protein remaining %” value is recorded as “B (80%< substrate protein remaining % ≤100%)”.

Regarding `O=C1CCN(N2C(=O)c3ccc(CN4CC=C(c5ncnc6sc7c(c56)CCC7)CC4)cc3C2=O)C(=O)N1` [GT-08434, 5-((4-(6,7-dihydro-5H-cyclopenta[4,5]thieno[2,3-d]pyrimidin-4-yl)-3,6-dihydropyridin-1(2H)-yl)methyl)-2-(2,4-dioxotetrahydropyrimidin-1(2H)-yl)isoindoline-1,3-dione], the “WEE1 substrate protein remaining %” value in test [1] is “B (80%< substrate protein remaining % ≤100%)”. The “IKZF1 substrate protein remaining %” value in test [2] is given as “A (0% ≤ substrate protein remaining % ≤80%)”. In addition, the “IKZF2 substrate protein remaining %” value in test [3] is listed as “A (0% ≤ substrate protein remaining % ≤80%)”. The “IKZF3 substrate protein remaining %” value in test [4] was “A (0% ≤ substrate protein remaining % ≤80%)”. For the same molecule, the “CK1α substrate protein remaining %” value in test [5] is “A (0% ≤ substrate protein remaining % ≤80%)”. Also, in test [6], the “GSPT1 substrate protein remaining %” value is given as “A (0% ≤ substrate protein remaining % ≤80%)”.

Turning to `O=C1CCN(N2C(=O)c3ccc(CN4CCC(N5C(=O)COc6cc(F)ccc65)CC4)cc3C2=O)C(=O)N1` [GT-07683, 2-(2,4-dioxotetrahydropyrimidin-1(2H)-yl)-5-((4-(7-fluoro-3-oxo-2,3-dihydro-4H-benzo[b][1,4]oxazin-4-yl)piperidin-1-yl)methyl)isoindoline-1,3-dione], the “WEE1 substrate protein remaining %” value in test [1] is reported as “B (80%< substrate protein remaining % ≤100%)”. For the same molecule, the “IKZF1 substrate protein remaining %” value in test [2] is “B (80%< substrate protein remaining % ≤100%)”. Besides, the “IKZF2 substrate protein remaining %” value in test [3] is “B (80%< substrate protein remaining % ≤100%)”. Besides, in test [4], the “IKZF3 substrate protein remaining %” value is listed as “B (80%< substrate protein remaining % ≤100%)”. Moreover, in test [5], the “CK1α substrate protein remaining %” value is recorded as “B (80%< substrate protein remaining % ≤100%)”. In test [6], the “GSPT1 substrate protein remaining %” value is listed as “A (0% ≤ substrate protein remaining % ≤80%)”.

Turning to `O=C1CCN(N2C(=O)c3ccc(CN4CCN(C(c5ccc(F)cc5)c5ccc(F)cc5)CC4)cc3C2=O)C(=O)N1` [GT-05268, 5-((4-(bis(4-fluorophenyl)methyl)piperazin-1-yl)methyl)-2-(2,4-dioxotetrahydropyrimidin-1(2H)-yl)isoindoline-1,3-dione], in test [1], the “WEE1 substrate protein remaining %” value is recorded as “B (80%< substrate protein remaining % ≤100%)”. Besides, in test [2], the “IKZF1 substrate protein remaining %” value was “B (80%< substrate protein remaining % ≤100%)”. The “IKZF2 substrate protein remaining %” value in test [3] is reported as “B (80%< substrate protein remaining % ≤100%)”. The “IKZF3 substrate protein remaining %” value in test [4] is listed as “A (0% ≤ substrate protein remaining % ≤80%)”. Also, the “CK1α substrate protein remaining %” value in test [5] is on record as “A (0% ≤ substrate protein remaining % ≤80%)”. For the same molecule, the “GSPT1 substrate protein remaining %” value in test [6] is “A (0% ≤ substrate protein remaining % ≤80%)”.

Turning to `Cc1nc(C2=CCN(Cc3ccc4c(c3)C(=O)N(N3CCC(=O)NC3=O)C4=O)CC2)c2c3c(sc2n1)CCC3` [GT-08435, 2-(2,4-dioxotetrahydropyrimidin-1(2H)-yl)-5-((4-(2-methyl-6,7-dihydro-5H-cyclopenta[4,5]thieno[2,3-d]pyrimidin-4-yl)-3,6-dihydropyridin-1(2H)-yl)methyl)isoindoline-1,3-dione], the “WEE1 substrate protein remaining %” value in test [1] is “A (0% ≤ substrate protein remaining % ≤80%)”. Moreover, in test [2], the “IKZF1 substrate protein remaining %” value is “A (0% ≤ substrate protein remaining % ≤80%)”. For the same molecule, the “IKZF2 substrate protein remaining %” value in test [3] was “B (80%< substrate protein remaining % ≤100%)”. The “IKZF3 substrate protein remaining %” value in test [4] is reported as “A (0% ≤ substrate protein remaining % ≤80%)”. Further, the “CK1α substrate protein remaining %” value in test [5] is reported as “B (80%< substrate protein remaining % ≤100%)”. The “GSPT1 substrate protein remaining %” value in test [6] is on record as “A (0% ≤ substrate protein remaining % ≤80%)”.
